From paper PMC9896003, “Discovery of a novel, liver-targeted thyroid hormone receptor-β agonist, CS271011, in the treatment of lipid metabolism disorders” (Frontiers in Endocrinology, 2023)
Like-named read-outs stand apart in the source and are kept apart here.

Columns and labels:
HMC = experiment: Cell viability in kidney cell line HMC; format: cell-based
[1] = DIO mouse study: body weight, food intake, liver and heart weight; format: in vivo; settings: DIO mice
Protocol: (§1) All animal experiments were performed at Chipscreen Biosciences (Shenzhen, China) according to the National Research Council’s Guide for the Care and Use of Laboratory Animals and the Regulations of Experimental Animal Administration issued by the State Committee of Science and Technology of China and approved by Shenzhen Peking University - The Hong Kong University of Science and Technology Medical Center’s Ethics Committee for the Welfare of Laboratory Animals (approval no. 2022-988). Forty C57BL/6J mice (4-5 weeks, male) were received and raised under a standard 12-hour light/dark cycle (lights off at 7:00 pm). Thirty-five mice were fed a fat-rich diet (SYSE Bio-tech, D12492i; 60% of kcal from fat; Changzhou, China), and the other five mice were fed a control diet (Guangdong Medical Laboratory Animal Center, Foshan, China) ad libitum for 12 weeks. […] The mice from Group 2 to Group 5 were fed a high-fat diet. […] Body weight and food intake were measured once daily during treatment. All mice were sacrificed after treatment, and blood, hearts, and livers were collected for further validation.

NRK49F = experiment: Cell viability in kidney cell line NRK49F; format: cell-based
DIO mice [2] = experiment: RT-PCR of myocardial energy metabolism gene mGPDH, DIO mice; format: in vivo, C57BL/6J mice
[3] = Tissue distribution study (heart, liver, kidney, blood) by LC-MS/MS; format: in vivo, C57BL/6J mice; settings: for Concentration, Blood / Concentration, Heart / Kp at 24 h: 24h; for Concentration, Blood / Concentration, Heart: mean; for Kp at 2 h / Kp at 4 h / Kp at 24 h: C57BL/6J, mouse
Protocol: To detect the tissue distribution of drugs, the heart, liver, and kidney of mice in Group 1, Group 2, and Group 3 were collected at 2 hours, 4 hours, and 24 hours, respectively. Then, 1 ml of 1X PBS was added for tissue homogenization. 50 μl tissue homogenate was added to 500 μl of extractant (containing 200 ng/ml methanol). The protein of tissue samples was precipitated by vortex oscillation for 5 min and centrifuged at 13,000 rpm for 10 min, and 150 μL of supernatant was collected and determined by LC−MS/MS procedures.

[4] = Serum pharmacokinetic study, single oral gavage; format: in vivo, C57BL/6J mice; settings: for AUC(0-inf) / AUC(0-t) / Cmax / Tmax / half-life / MRT last: male, mouse, serum, po, orally once, normal C57BL/6J mice; for MRT last: read-out: MRT(0-t)
Protocol: Then, each group was subdivided into three groups for blood extraction: Group 1, sample collection after 0.5 hours and 2 hours of treatment (n=3); Group 2, sample collection after 1 hour and 4 hours of treatment (n=3); and Group 3, sample collection after 8 hours and 24 hours of treatment (n=3). Approximately 100 μl of blood was collected from the orbit and centrifuged (3500 g, 15 min, 4°C) to extract serum and placed on ice (0°C), and 20 μl of serum was added to 200 μl of extractant (containing 200 ng/ml methanol), which was assessed by liquid chromatography-tandem mass spectrometry (LC−MS/MS) procedures. […]

DIO mice [5] = experiment: DIO mouse study: liver TG and TC; format: in vivo, C57BL/6J mice; settings: 3 mg/kg, 10 weeks
Protocol: as §1
Blood samples were collected from the orbit and placed for 30 min at room temperature and then centrifuged (3500 g, 15 min, 4°C), and the serum was collected for TG, TC, AST, and ALT tests. […]

DIO mice [6] = experiment: RT-PCR of hepatic genes, DIO mice; format: in vivo, C57BL/6J mice
Protocol: The total RNA of fresh liver tissue was extracted using TRIzol reagent (Invitrogen, Carlsbad, CA, USA), and RNA quality was measured using a Nanodrop2000 by calculating the 260/280 ratio. Based on the manufacturer’s instructions, we reverse-transcribed 5 μg of isolated RNA with a Transcriptor First Strand cDNA Synthesis Kit (Roche Diagnostics, Mannheim, Germany). Real-time PCR (RT−PCR) was conducted to measure the relative expression of genes by using SYBR Green Master (ROX) dye (Roche Diagnostics, Mannheim, Germany) and the ABI Prism 7000 Sequence Detection System (Applied Biosystems, Foster City, CA, USA). Changes in target mRNA were standardized to β-actin mRNA levels for each sample in triplicate. The 2-^△△Ct method was used to determine the relative mRNA expression levels.

DIO mice [7] = experiment: DIO mouse study: serum biochemical indices; format: in vivo
Protocol: as §1
Blood samples were collected from the orbit and placed for 30 min at room temperature and then centrifuged (3500 g, 15 min, 4°C), and the serum was collected for TG, TC, AST, and ALT tests. For the liver TG and TC tests, the right lobe of the liver was collected and weighed accurately, and then isopropanol and absolute ethanol were added at a ratio of 1:9 (weight/volume) for tissue homogenization on ice. Next, the liver sample was centrifuged (10,000 g and 2500 g, 10 min, at 4°C for liver TG and TC extraction, respectively), and the supernatant was collected for liver TG and TC assays. Tests for TC, ALT and AST were performed following the manufacturer’s instructions.

DIO mice [8] = experiment: DIO mouse study: liver histology (H&E, Oil Red O, NAFLD activity score); format: in vivo, C57BL/6J mice; settings: 3 mg/kg, 10 weeks
Protocol: All animal experiments were performed at Chipscreen Biosciences (Shenzhen, China) according to the National Research Council’s Guide for the Care and Use of Laboratory Animals and the Regulations of Experimental Animal Administration issued by the State Committee of Science and Technology of China and approved by Shenzhen Peking University - The Hong Kong University of Science and Technology Medical Center’s Ethics Committee for the Welfare of Laboratory Animals (approval no. 2022-988). Forty C57BL/6J mice (4-5 weeks, male) were received and raised under a standard 12-hour light/dark cycle (lights off at 7:00 pm). Thirty-five mice were fed a fat-rich diet (SYSE Bio-tech, D12492i; 60% of kcal from fat; Changzhou, China), and the other five mice were fed a control diet (Guangdong Medical Laboratory Animal Center, Foshan, China) ad libitum for 12 weeks. […] The mice from Group 2 to Group 5 were fed a high-fat diet. Treatments started on the thirteenth week and lasted 10 weeks, in which Groups 1 and 2 received solvent (0.2% CMC-Na), and the other groups were administered corresponding compounds orally once daily (the volume of solvent was 5 ml/kg). Body weight and food intake were measured once daily during treatment. All mice were sacrificed after treatment, and blood, hearts, and livers were collected for further validation.
After the animals were sacrificed, the left hepatic lobe was collected (approximately 100–200 mg) and fixed in 4% paraformaldehyde overnight. The liver tissue was sectioned at a thickness of 5 μm after being paraffin-embedded. Liver sections were stained with haematoxylin and eosin (H&E), and the NAFLD activity scores were determined based on the steatosis, lobular inflammation, and hepatocyte ballooning degeneration in accordance with the standard proposed by Kleiner ([17]).
To analyse the content of lipids in the liver, Oil Red O (ORO) staining of isobutyl alcohol-frozen liver sections was conducted by Wuhan Servicebio Technology Co., Ltd. (Wuhan, China). Each positive region of ORO staining was quantified for each sample using Imangepro plus 6.0 software ([…]).

[9] = 10 weeks oral once daily, CS271011 1 and 3 mg/kg, MGL-3196 3 mg/kg
[10] = heart/blood, 10 mg/kg oral, read-out: Ratio (tissue/blood), Heart
[11] = kidney/blood, 10 mg/kg oral, read-out: Ratio (tissue/blood), Kidney
[12] = liver/blood, 10 mg/kg oral, read-out: Ratio (tissue/blood), Liver
[13] = male, heart / blood, 3 mg/kg oral, read-out: Ratio (tissue/blood), Heart
[14] = male, kidney / blood, 3 mg/kg oral, read-out: Ratio (tissue/blood), Kidney
[15] = male, liver / blood, 3 mg/kg oral, read-out: Ratio (tissue/blood), Liver
[16] = 10 weeks of treatment, CS271011 1 and 3 mg/kg, MGL-3196 3 mg/kg

Compound: CC(C)c1cc(Oc2c(Cl)cc(-n3nc(C#N)c(=O)[nH]c3=O)cc2Cl)n[nH]c1=O [MGL-3196, 2-[3,5-dichloro-4-(5-isopropyl-6-oxo-1,6-dihydropyridazin-3-yloxy)phenyl]-3,5-dio xo-2,3,4,5-tetrahydro[1,2,4]triazine-6-carbonitrile]
- cell viability (HMC): no effect on cell viability
- liver weight and LW/BW ([1]; 10-week drug intervention): dramatically reduced
- body weight [1, 9]: dramatic reduction in body weight
- food intake [1, 9]: neither CS271011 nor MGL-3196 impeded food intake
- cell viability (NRK49F): no effect on cell viability
- mGPDH expression in the hearts of DIO mice (DIO mice [2]): barely affects
- tissue distribution (liver targeting) ([3]; 3 mg/kg and 10 mg/kg oral, especially 2 and 4 hours after administration): liver-targeted
- Concentration, Blood ([3]; 3 mg/kg oral): 25.40 ng/g
- Concentration, Heart ([3]; 3 mg/kg oral): 78.08 ng/g
- Concentration, Blood ([3]; 10 mg/kg oral): 42.40 ng/g
- Concentration, Heart ([3]; 10 mg/kg oral): 147.91 ng/g
- Kp at 2 h [3, 10]: 0.113
- Kp at 4 h [3, 10]: 0.112
- Kp at 24 h [3, 10]: 3.49
- Kp at 2 h [3, 11]: 0.572
- Kp at 4 h [3, 11]: 0.607
- Kp at 24 h [3, 11]: 0.734
- Kp at 2 h [3, 12]: 4.59
- Kp at 4 h [3, 12]: 4.63
- Kp at 24 h [3, 12]: 4.8
- Kp at 2 h [3, 13]: 0.213
- Kp at 4 h [3, 13]: 0.146
- Kp at 24 h [3, 13]: 3.07
- Kp at 2 h [3, 14]: 0.64
- Kp at 4 h [3, 14]: 0.617
- Kp at 24 h [3, 14]: 1.25
- Kp at 2 h [3, 15]: 6.59
- Kp at 4 h [3, 15]: 6.17
- Kp at 24 h [3, 15]: 3.17
- bioavailability in vivo, comparison at the same dosage ([4]; 3 mg/kg and 10 mg/kg oral): higher bioavailability in vivo than CS271011
- AUC(0-inf) ([4]; 3mg/kg): 9470 ng·h/mL
- AUC(0-t) ([4]; 3mg/kg): 9330 ng·h/mL
- Cmax ([4]; 3mg/kg): 1140 ng/mL
- Tmax ([4]; 3mg/kg): 2 h
- half-life ([4]; 3mg/kg): 3.8 h
- MRT last ([4]; 3mg/kg): 6.3 h
- AUC(0-inf) ([4]; 10mg/kg): 35800 ng·h/mL
- AUC(0-t) ([4]; 10mg/kg): 35600 ng·h/mL
- Cmax ([4]; 10mg/kg): 4870 ng/mL
- Tmax ([4]; 10mg/kg): 2 h
- half-life ([4]; 10mg/kg): 3 h
- MRT last ([4]; 10mg/kg): 5.8 h
- hepatic TC concentration (DIO mice [5]): markedly reduced
- hepatic TG concentration (DIO mice [5]): markedly reduced
- hepatic expression of Abcc3 (DIO mice [6]): negatively regulated
- hepatic expression of Csad, Slc25a30 and Tff3 (downregulated in DIO mice) (DIO mice [6]): rescued
- hepatic expression of Cyp4a10 (DIO mice [6]): obviously downregulated
- hepatic expression of Cyp39a1 (DIO mice [6]): upregulated
- hepatic expression of Hsd17b6 (DIO mice [6]): diminished
- hepatic expression of LDLR, Cyp7a1, Cyp17a1, Srebp2 and Sqle (DIO mice [6]): positively regulated
- hepatic expression of Srebf1 (DIO mice [6]): strongly downregulated
- Serum TG (DIO mice [7]; 3 mg/kg, 10 weeks, mean ± SD (DIO control 1.25±0.38)): 0.59 ± 0.11 mmol/L
- Serum TC (DIO mice [7]; 3 mg/kg, 10 weeks, mean ± SD (DIO control 7.79±1.67)): 3.46 ± 1.61 mmol/L
- serum ALT and AST levels (DIO mice [7]; 10 weeks of treatment): no influence
- serum TC vs. DIO control (DIO mice [7]; [16]): significant reduction
- serum TG vs. DIO control (DIO mice [7]; [16]): significant reduction
- NAS score (DIO mice [8]): equivalent efficacy
- ORO staining area (DIO mice [8]): decreased
- hepatic ballooning (DIO mice [8]): mitigated hepatic ballooning with a considerable effect
- steatosis score (DIO mice [8]): decreased
